Measured values reported in US11713341B1, “Antimicrobial NCR13 variant peptides” (Vestaron Corporation, priority 2022, dated 2023).
Where a SMILES comes first, the peptide text is derived from it.

System: Botrytis cinerea
Assay: Antimicrobial bioassay (Botrytis cinerea): growth inhibition by OD600
Type: cell-based
Conditions: for Activity ratio to NCR13a: anti-Botrytis cinerea activity (IC50) relative to comparator NCR13a; for anti-Botrytis activities relative to NCR13a: Botrytis cinerea growth, comparison with NCR13a
Protocol: The antimicrobial effect of the NCR13 variant peptides (NVPs) of the present disclosure were evaluated against the fungal species, Botrytis cinerea. […] The growth of Botrytis cinerea was then assessed via OD600 nm after incubation with a given NVP at room temperature after 96 hours. The IC50 of each peptide analyzed is shown in ppm.
The antimicrobial effect of the NCR13 variant peptides (NVPs) of the present disclosure were evaluated against the fungal species, Botrytis cinerea. […] The growth of Botrytis cinerea was then assessed via OD600 nm after incubation with a given NVP at room temperature after 96 hours.
The NVPs assessed were as follows: NVPM3 (+L) (SEQ ID NO: 5); NVPM5 (+M) (SEQ ID NO: 7); NVPM6 (+F) (SEQ ID NO: 8); NVPM7 (+W) (SEQ ID NO: 9); NVPM9 (+S) (SEQ ID NO: 11); NVPM11 (+Y) (SEQ ID NO: 13); NVPM14 (+D) (SEQ ID NO: 16); and NVPM15 (+E) (SEQ ID NO: 17).
NVPs having an amino acid sequence of SEQ ID NOs: 5, 7, 8, 9, 11, 13, 16, and 17 were generated as described above in Example 1. The peptide, NCR13a, having an amino acid sequence of: […] (SEQ ID NO: 2) was selected as a comparator peptide, with which the antifungal activity of the foregoing NVPs was compared.
The fungal species was Botrytis cinerea was cultured in potato dextrose agar plates. Fungal spores were collected from the agar plates and suspended into de-ionized water, followed by enumeration in a Petroff-Hausser counting chamber (VWR).
The 96-well plates were incubated at room temperature for 96 hours without shaking. The OD600 of the culture plate was determined using SpectraMax plate reader. Relative OD600 was determined by normalizing cell growth to control wells containing neither NVPs nor NCR13a. The OD600 was used to determine IC50.

CC[C@H](C)[C@H](NC(=O)[C@H](CS)NC(=O)[C@H](CCCCN)NC(=O)[C@@H]1CCCN1C(=O)[C@@H](NC(=O)[C@H](CCCCN)NC(=O)[C@@H]1CCCN1C(=O)[C@H](CCCCN)NC(=O)[C@H](CCCNC(=N)N)NC(=O)[C@H](CS)NC(=O)[C@H](C)NC(=O)[C@H](Cc1ccccc1)NC(=O)[C@H](CCCCN)NC(=O)[C@H](CCCCN)NC(=O)[C@H](CS)NC(=O)[C@H](CC(=O)O)NC(=O)[C@H](CCCCN)NC(=O)[C@H](CC(=O)O)NC(=O)[C@H](CO)NC(=O)[C@H](CCC(N)=O)NC(=O)[C@H](CS)NC(=O)[C@@H]1CCCN1C(=O)[C@H](CCCCN)NC(=O)[C@@H](NC(=O)CN)[C@@H](C)O)C(C)C)C(=O)N[C@@H](CC(N)=O)C(=O)NCC(=O)N[C@@H](Cc1ccccc1)C(=O)N[C@@H](CS)C(=O)N[C@@H](CCCCN)C(=O)N[C@@H](CS)C(=O)N[C@H](C(=O)N[C@@H](CCCNC(=N)N)C(=O)O)C(C)C [NCR13a, reference compound] (H-GTKPCQSDKDCKKFACRKPKVPKCINGFCKCVR-OH; N-terminus and C-terminus assumed)
IC50 (ppm) (amount required to achieve IC50 in Botrytis cinerea cells, growth by OD600 after 96 hours at room temperature in synthetic fungal medium, 2-fold serial dilution): 2.36 ppm
Activity ratio to NCR13a: 1

CC[C@H](C)[C@H](NC(=O)[C@H](CS)NC(=O)[C@H](CCCCN)NC(=O)[C@@H]1CCCN1C(=O)[C@@H](NC(=O)[C@H](CCCCN)NC(=O)[C@@H]1CCCN1C(=O)[C@H](CCCCN)NC(=O)[C@H](CCCNC(=N)N)NC(=O)[C@H](CS)NC(=O)[C@H](C)NC(=O)[C@H](Cc1ccccc1)NC(=O)[C@H](CCCCN)NC(=O)[C@H](CCCCN)NC(=O)[C@H](CS)NC(=O)[C@H](CC(=O)O)NC(=O)[C@H](CCCCN)NC(=O)[C@H](CC(=O)O)NC(=O)[C@H](CO)NC(=O)[C@H](CCC(N)=O)NC(=O)[C@H](CS)NC(=O)[C@@H]1CCCN1C(=O)[C@H](CCCCN)NC(=O)[C@@H](NC(=O)[C@H](C)N)[C@@H](C)O)C(C)C)C(=O)N[C@@H](CC(N)=O)C(=O)NCC(=O)N[C@@H](Cc1ccccc1)C(=O)N[C@@H](CS)C(=O)N[C@@H](CCCCN)C(=O)N[C@@H](CS)C(=O)N[C@H](C(=O)N[C@@H](CCCNC(=N)N)C(=O)O)C(C)C [NVPM1] (H-ATKPCQSDKDCKKFACRKPKVPKCINGFCKCVR-OH; N-terminus and C-terminus assumed)
Activity ratio to NCR13a: 2.43

CC[C@H](C)[C@H](NC(=O)[C@H](CS)NC(=O)[C@H](CCCCN)NC(=O)[C@@H]1CCCN1C(=O)[C@@H](NC(=O)[C@H](CCCCN)NC(=O)[C@@H]1CCCN1C(=O)[C@H](CCCCN)NC(=O)[C@H](CCCNC(=N)N)NC(=O)[C@H](CS)NC(=O)[C@H](C)NC(=O)[C@H](Cc1ccccc1)NC(=O)[C@H](CCCCN)NC(=O)[C@H](CCCCN)NC(=O)[C@H](CS)NC(=O)[C@H](CC(=O)O)NC(=O)[C@H](CCCCN)NC(=O)[C@H](CC(=O)O)NC(=O)[C@H](CO)NC(=O)[C@H](CCC(N)=O)NC(=O)[C@H](CS)NC(=O)[C@@H]1CCCN1C(=O)[C@H](CCCCN)NC(=O)[C@@H](NC(=O)[C@@H](N)CC(C)C)[C@@H](C)O)C(C)C)C(=O)N[C@@H](CC(N)=O)C(=O)NCC(=O)N[C@@H](Cc1ccccc1)C(=O)N[C@@H](CS)C(=O)N[C@@H](CCCCN)C(=O)N[C@@H](CS)C(=O)N[C@H](C(=O)N[C@@H](CCCNC(=N)N)C(=O)O)C(C)C [NVPM3] (H-LTKPCQSDKDCKKFACRKPKVPKCINGFCKCVR-OH; N-terminus and C-terminus assumed)
anti-Botrytis activities relative to NCR13a: improved anti-Botrytis activities relative to NCR13a
Activity ratio to NCR13a: 4.14

CC[C@H](C)[C@H](NC(=O)[C@H](CS)NC(=O)[C@H](CCCCN)NC(=O)[C@@H]1CCCN1C(=O)[C@@H](NC(=O)[C@H](CCCCN)NC(=O)[C@@H]1CCCN1C(=O)[C@H](CCCCN)NC(=O)[C@H](CCCNC(=N)N)NC(=O)[C@H](CS)NC(=O)[C@H](C)NC(=O)[C@H](Cc1ccccc1)NC(=O)[C@H](CCCCN)NC(=O)[C@H](CCCCN)NC(=O)[C@H](CS)NC(=O)[C@H](CC(=O)O)NC(=O)[C@H](CCCCN)NC(=O)[C@H](CC(=O)O)NC(=O)[C@H](CO)NC(=O)[C@H](CCC(N)=O)NC(=O)[C@H](CS)NC(=O)[C@@H]1CCCN1C(=O)[C@H](CCCCN)NC(=O)[C@@H](NC(=O)[C@@H](N)CCSC)[C@@H](C)O)C(C)C)C(=O)N[C@@H](CC(N)=O)C(=O)NCC(=O)N[C@@H](Cc1ccccc1)C(=O)N[C@@H](CS)C(=O)N[C@@H](CCCCN)C(=O)N[C@@H](CS)C(=O)N[C@H](C(=O)N[C@@H](CCCNC(=N)N)C(=O)O)C(C)C [NVPM5] (H-MTKPCQSDKDCKKFACRKPKVPKCINGFCKCVR-OH; N-terminus and C-terminus assumed)
anti-Botrytis activities relative to NCR13a: improved anti-Botrytis activities relative to NCR13a
Activity ratio to NCR13a: 2.74

CC[C@H](C)[C@H](NC(=O)[C@H](CS)NC(=O)[C@H](CCCCN)NC(=O)[C@@H]1CCCN1C(=O)[C@@H](NC(=O)[C@H](CCCCN)NC(=O)[C@@H]1CCCN1C(=O)[C@H](CCCCN)NC(=O)[C@H](CCCNC(=N)N)NC(=O)[C@H](CS)NC(=O)[C@H](C)NC(=O)[C@H](Cc1ccccc1)NC(=O)[C@H](CCCCN)NC(=O)[C@H](CCCCN)NC(=O)[C@H](CS)NC(=O)[C@H](CC(=O)O)NC(=O)[C@H](CCCCN)NC(=O)[C@H](CC(=O)O)NC(=O)[C@H](CO)NC(=O)[C@H](CCC(N)=O)NC(=O)[C@H](CS)NC(=O)[C@@H]1CCCN1C(=O)[C@H](CCCCN)NC(=O)[C@@H](NC(=O)[C@@H](N)Cc1ccccc1)[C@@H](C)O)C(C)C)C(=O)N[C@@H](CC(N)=O)C(=O)NCC(=O)N[C@@H](Cc1ccccc1)C(=O)N[C@@H](CS)C(=O)N[C@@H](CCCCN)C(=O)N[C@@H](CS)C(=O)N[C@H](C(=O)N[C@@H](CCCNC(=N)N)C(=O)O)C(C)C [NVPM6] (H-FTKPCQSDKDCKKFACRKPKVPKCINGFCKCVR-OH; N-terminus and C-terminus assumed)
anti-Botrytis activities relative to NCR13a: improved anti-Botrytis activities relative to NCR13a
Activity ratio to NCR13a: 1.82

CC[C@H](C)[C@H](NC(=O)[C@H](CS)NC(=O)[C@H](CCCCN)NC(=O)[C@@H]1CCCN1C(=O)[C@@H](NC(=O)[C@H](CCCCN)NC(=O)[C@@H]1CCCN1C(=O)[C@H](CCCCN)NC(=O)[C@H](CCCNC(=N)N)NC(=O)[C@H](CS)NC(=O)[C@H](C)NC(=O)[C@H](Cc1ccccc1)NC(=O)[C@H](CCCCN)NC(=O)[C@H](CCCCN)NC(=O)[C@H](CS)NC(=O)[C@H](CC(=O)O)NC(=O)[C@H](CCCCN)NC(=O)[C@H](CC(=O)O)NC(=O)[C@H](CO)NC(=O)[C@H](CCC(N)=O)NC(=O)[C@H](CS)NC(=O)[C@@H]1CCCN1C(=O)[C@H](CCCCN)NC(=O)[C@@H](NC(=O)[C@@H](N)Cc1c[nH]c2ccccc12)[C@@H](C)O)C(C)C)C(=O)N[C@@H](CC(N)=O)C(=O)NCC(=O)N[C@@H](Cc1ccccc1)C(=O)N[C@@H](CS)C(=O)N[C@@H](CCCCN)C(=O)N[C@@H](CS)C(=O)N[C@H](C(=O)N[C@@H](CCCNC(=N)N)C(=O)O)C(C)C [NVPM7] (H-WTKPCQSDKDCKKFACRKPKVPKCINGFCKCVR-OH; N-terminus and C-terminus assumed)
anti-Botrytis activities relative to NCR13a: improved anti-Botrytis activities relative to NCR13a
Activity ratio to NCR13a: 2.71

CC[C@H](C)[C@H](NC(=O)[C@H](CS)NC(=O)[C@H](CCCCN)NC(=O)[C@@H]1CCCN1C(=O)[C@@H](NC(=O)[C@H](CCCCN)NC(=O)[C@@H]1CCCN1C(=O)[C@H](CCCCN)NC(=O)[C@H](CCCNC(=N)N)NC(=O)[C@H](CS)NC(=O)[C@H](C)NC(=O)[C@H](Cc1ccccc1)NC(=O)[C@H](CCCCN)NC(=O)[C@H](CCCCN)NC(=O)[C@H](CS)NC(=O)[C@H](CC(=O)O)NC(=O)[C@H](CCCCN)NC(=O)[C@H](CC(=O)O)NC(=O)[C@H](CO)NC(=O)[C@H](CCC(N)=O)NC(=O)[C@H](CS)NC(=O)[C@@H]1CCCN1C(=O)[C@H](CCCCN)NC(=O)[C@@H](NC(=O)[C@@H](N)CO)[C@@H](C)O)C(C)C)C(=O)N[C@@H](CC(N)=O)C(=O)NCC(=O)N[C@@H](Cc1ccccc1)C(=O)N[C@@H](CS)C(=O)N[C@@H](CCCCN)C(=O)N[C@@H](CS)C(=O)N[C@H](C(=O)N[C@@H](CCCNC(=N)N)C(=O)O)C(C)C [NVPM9] (H-STKPCQSDKDCKKFACRKPKVPKCINGFCKCVR-OH; N-terminus and C-terminus assumed)
anti-Botrytis activities relative to NCR13a: improved anti-Botrytis activities relative to NCR13a
Activity ratio to NCR13a: 1.66
